Data set [1] is described as follows: Toxicity in KM mouse assessed as effect on WBC count at 20 mg/kg, sc administered into middle dorsum and measured after 24 hrs by routine blood test. It counts as organism-based. The conditions noted are these: in vivo.
Data set [2] deals with Cell membrane. Briefly: Disruption of membrane integrity in methicillin-resistant Staphylococcus aureus 3 assessed as increase in DNA leakage at 1 to 8 times MIC incubated for 4 hrs by microspectrophotometer analysis. It is filed as subcellular.
For data set [3], the system named is Staphylococcus aureus. Briefly: Antibacterial activity against methicillin-resistant Staphylococcus aureus 3 infected in KM mouse assessed as reduction in inflammatory cells in subcutaneous tissue at 5 to 10 mg/kg administered into skin infection site measured after 24 hrs by H and E staining based analysis. Conditions: dose 5-10 mg/kg. It counts as functional, organism-based.

Data set [4] deals with Staphylococcus aureus. Briefly: Antibacterial activity against methicillin-resistant Staphylococcus aureus 3 infected in KM mouse assessed as reduction in skin lesions/abscesses in subcutaneous tissue at 10 mg/kg administered into skin infection site measured after 24 hrs. It counts as functional, organism-based.
Data set [5] relates to Staphylococcus aureus. Description: Bactericidal activity against methicillin-resistant Staphylococcus aureus 3 at 4 times MIC by plate colony counting method. Conditions: time 0-8 hrs, TDE = time-dependent effect. It is filed as functional, organism-based.

Activity calls are given as the source filed them. No cut-off for these calls is given here.

As for `CCCN(CCC)C(=O)C[N+](C)(C)CCCCOc1ccc(/C=C/C(=O)c2c(OC)cc3c(c2O)C=CC(C)(C)O3)cc1.[Br-]`, the figures for the Activity entry in data set [1], in data set [2] and in data set [5] were “Non-Toxic”, “Dose-Dependent Effect” and “Tde”, respectively. Also, the result in data set [3] and in data set [4] was Active.

The values above are taken from ChEMBL document CHEMBL5316298, “Discovery of Amphiphilic Xanthohumol Derivatives as Membrane-Targeting Antimicrobials against Methicillin-Resistant Staphylococcus aureus” (J Med Chem, 2023).
